The values below come from patent US20160081936A1 (MURRAY AND POOLE ENTERPRISES LIMITED, priority 2013, published 2016).

Data set [1] relates to patients with a first episode of recurrent pericarditis. To be noted: conventional treatment with aspirin alone, or the same plus colchicine 0.5-1.0 mg/d for 6 months; cited from earlier work.
The test system of data set [2] is patients with a first episode of acute pericarditis. To be noted: conventional treatment with aspirin, or the same plus colchicine 0.5 to 1.0 mg/day for 3 months; p=0.004; cited from earlier work.
The subject of data set [3] is patients with stable coronary disease. To be noted: 0.5 mg/day in addition to statins and other standard secondary prevention therapies; Nidorf et al., JACC 2013; cited from earlier work.
Data set [4] shares this test system. The data set can be described thus: LoDoCo trial: colchicine 0.5 mg/day added to standard secondary prevention therapy. In kind it is in vivo, human. Here is the method: This study is described in PCT/AU2013/001261 and is hereby incorporated in its entirety by reference.
All outcomes were evaluated by an experienced adjudicator blinded to the treatment allocation.
Patients with a history of bypass surgery were only eligible if they had undergone bypass surgery more than 10 years before, or had angiographic evidence of graft failure or had undergone stenting since their bypass surgery. All patients signed informed consent before randomization.
The randomization sequence was computer generated, kept concealed from the investigators at all times and was managed by a research assistant who had no involvement in the evaluation or management of study patients. […] Patients who were intolerant to therapy remained in the study, and were followed in the usual manner and included in the primary intention to treat analysis.
The drug was dispensed by their usual chemist, and if requested, patients were reimbursed for the cost of these scripts. All other treatments were continued as usual.
Patient compliance with treatment and outcome data were collected at routine follow up visits and at the time of any unplanned hospital admission. An acute coronary syndrome (ACS) was defined as either (a) Acute Myocardial Infarction (AMI), as evidenced by acute ischemic chest pain associated with a rise in serum troponin above the upper limit of normal or (b) Unstable Angina (UA), as evidenced by a recent acceleration of the patient's angina unassociated with a rise in serum troponin but associated with angiographic evidence of a change in the patient's coronary anatomy. (Unstable Angina Braunwald classification types IB and IIB). The ACS was characterized as being stent-related if there was evidence of significant in-stent stenosis or acute stent thrombosis. Out of Hospital Cardiac Arrest was defined as either a sudden death as evidenced on the patient's death certificate, or a non-fatal out of hospital cardiac arrest, defined as a recovery from sudden collapse associated with documented asystole, ventricular tachycardia or ventricular fibrillation. Noncardioembolic ischemic stroke was defined as CT or MRI proven ischemic stroke adjudged by the treating neurologist as not being due to atrial fibrillation or intracranial hemorrhage.
The primary efficacy outcome was the composite, ACS, fatal or non-fatal out of hospital cardiac arrest or non-cardio-embolic ischemic stroke. Secondary outcomes were (a) individual components of the primary outcome, and (b) the components of ACS unrelated to stent disease.
The pre-specified study duration was a minimum follow up of two years in all patients. Accordingly the study was closed on May 31, 2012. During May, all living patients were contacted by phone to collect compliance and outcome data from the last date of follow-up.
Summary statistics, including mean and standard deviation were calculated for all baseline characteristics by treatment arm. All time to event outcomes were calculated in days by subtracting the date of randomization from either: (1) the date of event or death; or (2) the trial termination date for those patients not experiencing the defined event. As pre-specified, the primary efficacy analysis was based on the intention-to-treat principle. The intention-to-treat analysis included all randomized subjects and all events during the time from randomization to the trial termination. Trial termination date was fixed as May 31, 2012. A secondary pre-specified on-treatment analysis was also performed, based on patients who were both tolerant and compliant to therapy beyond the first month of randomization.
The time-to-first-event for all outcomes is presented using a Kaplan-Meier plot. […] The secondary outcomes were analysed similarly.

Structures are written as SMILES.

`CC(=O)Oc1ccccc1C(=O)O` [aspirin]: the “recurrence rate, actuarial rates at 18 months” value in data set [1] was 50.6%. Moreover, the “recurrence rate at 18 months” value in data set [2] was 32.3%.
Turning to `COc1cc2c(c(OC)c1OC)-c1ccc(OC)c(=O)cc1[C@@H](NC(C)=O)CC2` [colchicine, N[5,6,7,9-tetrahydro-1,2,3,10-tetratmethoxy 9-oxobenzo[a]heptalen-7-yl],(S)-acetamide], the “prevention of cardiovascular events in patients with stable coronary disease” value in data set [3] is reported as “appeared effective”. The “recurrence rate, actuarial rates at 18 months” value in data set [1] was 24.0%. For the same compound, the “recurrence rate at 18 months” value in data set [2] is recorded as 10.7%. The compound further came in with a deaths in data set [4] (colchicine group (282), all of non-cardiac causes, 10 in control group) of 4 patients. In addition, the “primary outcome, number needed to treat” value in data set [4] (intention to treat) is recorded as 11. In data set [4] (intention to treat, 0.5 mg/day), the “ACS unrelated to stent disease associated with UA, patients” value is 1.8%; the “ACS unrelated to stent disease associated with an AMI, patients” value is listed as 1.4%; the “patients presenting with an ACS” value is 4.6%; the “patients presenting with an ACS unrelated to stent disease” value worked out at 3.2%. Also, the “primary outcome (composite of ACS, fatal or non-fatal out of hospital cardiac arrest or non-cardio-embolic ischemic stroke), patients with event” value in data set [4] (intention to treat, 0.5 mg/day, median follow up 36 months) was found to be 5.3%. For the same compound, the “events in patients compliant and tolerant to therapy beyond the first month” value in data set [4] (on-treatment analysis, 0.5 mg/day) is 4.5%. In data set [4] (treatment group vs control), the “out of hospital cardiac arrest and non-cardio-embolic ischemic stroke” value is recorded as “reduced”.
